Assay results reported in patent US11111251B2, “Positive allosteric modulators of the muscarinic acetylcholine receptor M1” (Vanderbilt University, priority 2016, dated 2021).

Target: T1, human mAChR M1 (Homo sapiens, UniProt P11229)
T1 sequence (P11229 1-460): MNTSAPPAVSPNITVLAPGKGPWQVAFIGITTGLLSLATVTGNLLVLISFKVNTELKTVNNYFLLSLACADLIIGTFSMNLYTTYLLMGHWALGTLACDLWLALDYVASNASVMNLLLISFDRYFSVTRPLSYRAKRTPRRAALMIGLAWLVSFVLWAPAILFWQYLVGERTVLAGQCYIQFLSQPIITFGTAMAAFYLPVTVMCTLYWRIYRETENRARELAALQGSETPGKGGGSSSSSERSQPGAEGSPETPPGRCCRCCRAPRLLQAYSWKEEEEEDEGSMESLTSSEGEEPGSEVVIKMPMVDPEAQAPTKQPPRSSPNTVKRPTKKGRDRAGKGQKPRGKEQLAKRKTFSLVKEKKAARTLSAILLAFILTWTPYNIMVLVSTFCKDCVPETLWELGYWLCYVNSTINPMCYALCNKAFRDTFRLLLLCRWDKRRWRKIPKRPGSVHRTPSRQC
Test: mAChR M1 cell-based functional assay: calcium mobilization, positive allosteric modulator mode (increase in EC20 acetylcholine response)
Conditions: Table 2, human M1; for EC50: read-out: Human M1 EC50; for Emax: read-out: Human M1 Emax (%)
In short: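 Calcium-flux assay in CHO-K1 cells stably expressing human M1, loaded with Fluo-4 AM (50 min, 37 °C) and read at 1 Hz. Compound (11-point, 1:3 series) was added at 4 s, EC20 acetylcholine at 144 s and EC80 at 230 s. PAM activity is the concentration-dependent rise in the EC20 response, fitted with a four-parameter logistic.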

Row | Compound | EC50 [nM] | Emax [%]
1 | Cc1nc(-c2ccc(Cc3cc(C(=O)NC4CCCCNC4=O)nc4ccsc34)cc2)cs1 (centres unmarked) [Compound 199, 7-[[4-(2-methylthiazol-4-yl)phenyl]methyl]-N-(2-oxoazepan-3-yl)thieno[3,2-b]pyridine-5-carboxamide] | 1420 | 88.1
2 | O=C(NC12CC(C1)C2)c1cc(Cc2ccc(-c3cscn3)cc2)c2sccc2n1 [Compound 201, N-(3-bicyclo[1.1.1]pentanyl)-7-[(4-thiazol-4-ylphenyl)methyl]thieno[3,2-b]pyridine-5-carboxamide] | > 10000 | 38.5
3 | CC(C)(C)N1CC(NC(=O)c2cc(Cc3ccc(-c4cscn4)cc3)c3sccc3n2)C1 [Compound 203, N-(1-tert-butylazetidin-3-yl)-7-[(4-thiazol-4-ylphenyl)methyl]thieno[3,2-b]pyridine-5-carboxamide] | 2200 | 75.3
4 | O=C(NC1CC(F)C1)c1cc(Cc2ccc(-c3cscn3)cc2)c2sccc2n1 (centres unmarked) [Compound 205, N-(3-fluorocyclobutyl)-7-[(4-thiazol-4-ylphenyl)methyl]thieno[3,2-b]pyridine-5-carboxamide] | 1720 | 78
5 | O=C(N[C@H]1CCC[C@@H]1O)c1cc(Cc2ccc(-c3cscn3)cc2)c2sccc2n1 [Compound 206, N-[(1S,2S)-2-hydroxycyclopentyl]-7-[(4-thiazol-4-ylphenyl)methyl]thieno[3,2-b]pyridine-5-carboxamide] | 38.8 | 87
6 | O=C(N[C@H]1CCOC1)c1cc(Cc2ccc(-c3cscn3)cc2)c2sccc2n1 [Compound 208, N-[(3S)-tetrahydrofuran-3-yl]-7-[(4-thiazol-4-ylphenyl)methyl]thieno[3,2-b]pyridine-5-carboxamide] | 1880 | 80.3
7 | O=C(NC1CCCCC1)c1cc(Cc2ccc(-c3cscn3)cc2)c2sccc2n1 [Compound 209, N-cyclohexyl-7-[(4-thiazol-4-ylpheny)methyl]thieno[3,2-b]pyridine-5-carboxamide] | 3890 | 69.7
8 | CN1CCC(NC(=O)c2cc(Cc3ccc(-c4cscn4)cc3)c3sccc3n2)CC1 [Compound 211, N-(1-methyl-4-piperidyl)-7-[(4-thiazol-4-ylphenyl)methyl]thieno[3,2-b]pyridine-5-carboxamide] | 1780 | 82.6
9 | O=C(N[C@H]1CCCOC1)c1cc(Cc2ccc(-c3cscn3)cc2)c2sccc2n1 [Compound 213, N-([3S)-tetrahydropyran-3-yl]-7-[(4-thiazol-4-ylphenyl)methyl]thieno[3.2-b]pyridine-5-carboxamide] | 1120 | 61.2
10 | O=C(N[C@H]1CCOC[C@@H]1O)c1cc(Cc2ccc(-c3cscn3)cc2)c2sccc2n1 [Compound 215, N-[(3R,4S)-3-hydroxytetrahydropyran-4-yl]-7-[(4-thiazol-4-ylphenyl)methyl]thieno[3,2-b]pyridine-5-carboxamide] | 10.1 | 72.7
11 | O=C(N[C@H]1CCCC[C@@H]1O)c1cc(Cc2ccc(-c3cscn3)cc2)c2sccc2n1 [Compound 217, N-[(1S,2S)-2-hydroxycyclohexyl]-7-[(4-thiazol-4-ylphenyl)methyl]thieno[3,2-b]pyridine-5-carboxamide] | 45.4 | 74.8
12 | CO[C@H]1CCCC[C@@H]1NC(=O)c1cc(Cc2ccc(-c3cscn3)cc2)c2sccc2n1 [Compound 218, N-[(1S,2S)-2-methoxycyclohexyl]-7-[(4-thiazol-4-ylphenyl)methyl]thieno[3,2-b]pyridine-5-carboxamide] | > 10000 | 52.2
13 | O=C(N[C@H]1CCCCC[C@@H]1O)c1cc(Cc2ccc(-c3cscn3)cc2)c2sccc2n1 [Compound 219, N-[(1S,2S)-2-hydroxycycloheptyl]-7-[(4-thiazol-4-ylphenyl)methyl]thieno[3,2-b]pyridine-5-carboxamide] | 144 | 73
14 | O=C(NC1CCN2CCCC12)c1cc(Cc2ccc(-c3cscn3)cc2)c2sccc2n1 (centres unmarked) [Compound 220, N-(hexahydro-1H-pyrrolizin-1-yl)-7-[(4-thiazol-4-ylphenyl)methyl]thieno[3,2-b]pyridine-5-carboxamide] | 1280 | 80.6

More lines, in order of falling EC50, values ahead:

Row | EC50 [nM] | Emax [%] | Compound
15 | 5950 | 81.1 | CN(C(=O)c1cc(Cc2ccc(-c3cscn3)cc2)c2sccc2n1)C1CCOCC1 [Compound 214, N-methyl-N-tetrahydropyran-4-yl-7-[(4-thiazol-4-ylphenyl)methyl]thieno[3,2-b]pyridine-5-carboxamide]
16 | 2970 | 77 | O=C(N[C@@H]1CCOC1)c1cc(Cc2ccc(-c3cscn3)cc2)c2sccc2n1 [Compound 207, N-[(3R)-tetrahydrofuran-3-yl]-7-[(4-thiazol-4-ylphenyl)methyl]thieno[3,2-b]pyridine-5-carboxamide]
17 | 2340 | 82.2 | CN1CCCC(NC(=O)c2cc(Cc3ccc(-c4cscn4)cc3)c3sccc3n2)C1 (centres unmarked) [Compound 210, N-(1-methyl-3-piperidyl)-7-[(4-thiazol-4-ylphenyl)methyl]thieno[3,2-b]pyridine-5-carboxamide]
18 | 1370 | 63.7 | O=C(NC1COC1)c1cc(Cc2ccc(-c3cscn3)cc2)c2sccc2n1 [Compound 202, N-(oxetan-3-yl)-7-[(4-thiazol-4-ylphenyl)methyl]thieno[3,2-b]pyridine-5-carboxamide]
19 | 897 | 83.5 | COC1CC(NC(=O)c2cc(Cc3ccc(-c4cscn4)cc3)c3sccc3n2)C1 (centres unmarked) [Compound 204, N-(3-methoxycyclobutyl)-7-[(4-thiazol-4-ylphenyl)methyl]thieno[3,2-b]pyridine-5-carboxamide]
20 | 858 | 73.3 | O=C(N[C@@H]1CCCOC1)c1cc(Cc2ccc(-c3cscn3)cc2)c2sccc2n1 [Compound 212, N-[(3R)-tetrahydropyran-3-yl]-7-[(4-thiazol-4-ylphenyl)methyl]thieno[3,2-b]pyridine-5-carboxamide]
21 | 595 | 86.9 | O=C(NC1CCCNC1=O)c1cc(Cc2ccc(-c3cscn3)cc2)c2sccc2n1 (centres unmarked) [Compound 221, N-(2-oxo-3-piperidyl)-7-[(4-thiazol-4-ylphenyl)methyl]thieno[3,2-b]pyridine-5-carboxamide]
22 | 317 | 80.3 | O=C(NC1CCCCNC1=O)c1cc(Cc2ccc(-c3cscn3)cc2)c2sccc2n1 (centres unmarked) [Compound 222, N-(2-oxoazepan-3-yl)-7-[(4-thiazol-4-ylphenyl)methyl]thieno[3,2-b]pyridine-5-carboxamide]
23 | 116 | 89.4 | O=C(N[C@@H]1CC[C@H]1O)c1cc(Cc2ccc(-c3cscn3)cc2)c2sccc2n1 [Compound 200, N-[(1R,2R)-2-hydroxycyclobutyl]-7-[(4-thiazol-4-ylphenyl)methyl]thieno[3,2-b]pyridine-5-carboxamide]
24 | 29.4 | 79.9 | Cn1cc(-c2ccc(Cc3cc(C(=O)N[C@H]4CCC[C@@H]4O)nc4ccsc34)cn2)cn1 [Compound 223, N-[(1S,2S)-2-hydroxycyclopentyl]-7-[[6-(1-methylpyrazol-4-yl)-3-pyridyl]methyl]thieno[3,2-b]pyridine-5-carboxamide]
25 | 22 | 81.2 | O=C(N[C@H]1COCC[C@@H]1O)c1cc(Cc2ccc(-c3cscn3)cc2)c2sccc2n1 [Compound 216]
